Tests used:
purple nutsedge = assay: Test B pre/postemergence purple nutsedge; format: in vivo, Cyperus rotundus
How it was run: (§1)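 Herbicidal effect was estimated by eye on a ten-point control scale after plants spent twelve to sixteen days in a greenhouse following soil or foliar treatment. Foliar sprays targeted plants at one to four leaves; all doses were formulated in a non-phytotoxic solvent with surfactant.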

sugar beet = assay: Test B pre/postemergence sugar beet; format: in vivo, Beta vulgaris
How it was run: as §1

bamyardgrass = assay: Test B flood test barnyardgrass; format: in vivo, Echinochloa crus-galli
How it was run: (§2)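 Each value is a visual injury score relative to controls, with 10 meaning complete control and 0 no effect. Evaluation took place twelve to sixteen days after the 2-leaf-stage plants were treated and kept in the greenhouse.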

giant foxtail = assay: Test B pre/postemergence giant foxtail; format: in vivo, Setaria faberii
How it was run: as §1

wild oat = assay: Test B pre/postemergence wild oat; format: in vivo, Avena fatua
How it was run: as §1

blackgrass = assay: Test B pre/postemergence blackgrass; format: in vivo, Alopecurus myosuroides
How it was run: as §1

corn = assay: Test B pre/postemergence corn; format: in vivo, Zea mays
How it was run: as §1

surinam grass = assay: Test B pre/postemergence surinam grass; format: in vivo, Brachiaria decumbens
How it was run: as §1

crabgrass = assay: Test B pre/postemergence crabgrass; format: in vivo, Digitaria sanguinalis
How it was run: as §1

soybean = assay: Test B pre/postemergence soybean; format: in vivo, Glycine max
How it was run: as §1

rice = assay: Test B flood test rice; format: in vivo, Oryza sativa
How it was run: as §2

smallflower flatsedge = assay: Test B flood test smallflower flatsedge; format: in vivo, Cyperus difformis
How it was run: as §2

bedstraw = assay: Test B pre/postemergence bedstraw; format: in vivo, Galium aparine
How it was run: as §1

cocklebur = assay: Test B pre/postemergence cocklebur; format: in vivo, Xanthium strumarium
How it was run: as §1

pigweed = assay: Test B pre/postemergence pigweed; format: in vivo, Amaranthus retroflexus
How it was run: as §1

velvetleaf = assay: Test B pre/postemergence velvetleaf; format: in vivo, Abutilon theophrasti
How it was run: as §1

[1] = Preemergence, Rate 62 g/ha, scale of 0 to 10 where 0 is no effect and 10 is complete control
[2] = Preemergence, Rate 250 g/ha, scale of 0 to 10 where 0 is no effect and 10 is complete control
[3] = Preemergence, Rate 500 g/ha, scale of 0 to 10 where 0 is no effect and 10 is complete control
[4] = Rate 62 g/ha, Postemergence, scale 0 to 10 (0 no effect, 10 complete control)
[5] = Rate 125 g/ha, Postemergence, scale of 0 to 10 where 0 is no effect and 10 is complete control
[6] = Rate 125 g/ha, Preemergence, scale of 0 to 10 where 0 is no effect and 10 is complete control
[7] = Rate 250 g/ha, Postemergence, scale of 0 to 10 where 0 is no effect and 10 is complete control
[8] = Rate 500 g/ha, Postemergence, scale 0 to 10, 0 no effect, 10 complete control
[9] = Rate 62 g/ha, headed Pre-emergence (flood test species), scale 0 to 10 (0 no effect, 10 complete control)
[10] = Rate 125 g/ha, Pre-emergence, flood test species, scale 0 to 10 where 0 is no effect and 10 is complete control
[11] = Rate 250 g/ha, Pre-emergence, flood-test species, scale 0 to 10, 0 is no effect, 10 is complete control
[12] = Rate 500 g/ha, Pre-emergence, flood test species, scale 0 to 10 (0 no effect, 10 complete control)

CC(C)N(C(=O)n1oc(=O)n(CC(C)(C)C)c1=O)c1ccc(F)cc1F [Compound 277]
Nutsedge plant response rating (purple nutsedge; [1]): 0 | Nutsedge plant response rating (purple nutsedge; [2]): 0 | Plant response rating, Nutsedge (purple nutsedge; [3]): 0 | Nutsedge plant response rating (purple nutsedge; [4]): 0 | Nutsedge plant response rating (purple nutsedge; [5]): 0 | Nutsedge plant response rating (purple nutsedge; [6]): 0 | Plant response rating, Nutsedge (purple nutsedge; [7]): 0 | Nutsedge plant response rating (purple nutsedge; [8]): 0 | Sugarbeets plant response rating (sugar beet; [2]): 2 | Plant response rating, Sugarbeets (sugar beet; [3]): 7 | Sugarbeets plant response rating (sugar beet; [4]): 1 | Sugarbeets plant response rating (sugar beet; [5]): 2 | Sugarbeets plant response rating (sugar beet; [6]): 1 | Plant response rating, Sugarbeets (sugar beet; [7]): 4 | Sugarbeets plant response rating (sugar beet; [8]): 5 | Barnyardgrass plant response rating (bamyardgrass; [9]): 2 | Barnyardgrass plant response rating (bamyardgrass; [10]): 2 | Barnyardgrass plant response rating (bamyardgrass; [11]): 1 | Barnyardgrass plant response rating (bamyardgrass; [12]): 9 | Giant foxtail plant response rating (giant foxtail; [1]): 10 | Giant foxtail plant response rating (giant foxtail; [2]): 10 | Plant response rating, Giant foxtail (giant foxtail; [3]): 10 | Giant foxtail plant response rating (giant foxtail; [4]): 2 | Giant foxtail plant response rating (giant foxtail; [5]): 3 | Giant foxtail plant response rating (giant foxtail; [6]): 10 | Plant response rating, Giant foxtail (giant foxtail; [7]): 4 | Giant foxtail plant response rating (giant foxtail; [8]): 6 | Wild oats plant response rating (wild oat; [2]): 7 | Plant response rating, Wild oats (wild oat; [3]): 8 | Wild oats plant response rating (wild oat; [4]): 0 | Wild oats plant response rating (wild oat; [5]): 0 | Plant response rating, Wild oats (wild oat; [7]): 0 | Wild oats plant response rating (wild oat; [8]): 2 | Blackgrass plant response rating (blackgrass; [2]): 10 | Plant response rating, Blackgrass (blackgrass; [3]): 10 | Blackgrass plant response rating (blackgrass; [4]): 2 | Blackgrass plant response rating (blackgrass; [5]): 8 | Blackgrass plant response rating (blackgrass; [6]): 9 | Plant response rating, Blackgrass (blackgrass; [7]): 8 | Blackgrass plant response rating (blackgrass; [8]): 8 | Corn plant response rating (corn; [1]): 0 | Corn plant response rating (corn; [2]): 0 | Plant response rating, Corn (corn; [3]): 3 | Corn plant response rating (corn; [4]): 0 | Corn plant response rating (corn; [5]): 0 | Corn plant response rating (corn; [6]): 0 | Plant response rating, Corn (corn; [7]): 0 | Corn plant response rating (corn; [8]): 0 | B. signalgrass plant response rating (surinam grass; [2]): 10 | Plant response rating, B. signalgrass (surinam grass; [3]): 10 | B. signalgrass plant response rating (surinam grass; [4]): 0 | B. signalgrass plant response rating (surinam grass; [5]): 0 | B. signalgrass plant response rating (surinam grass; [6]): 9 | Plant response rating, B. signalgrass (surinam grass; [7]): 1 | B. signalgrass plant response rating (surinam grass; [8]): 3 | Crabgrass plant response rating (crabgrass; [1]): 4 | Crabgrass plant response rating (crabgrass; [2]): 9 | Plant response rating, Crabgrass (crabgrass; [3]): 10 | Crabgrass plant response rating (crabgrass; [4]): 1 | Crabgrass plant response rating (crabgrass; [5]): 2 | Crabgrass plant response rating (crabgrass; [6]): 4 | Plant response rating, Crabgrass (crabgrass; [7]): 5 | Crabgrass plant response rating (crabgrass; [8]): 6 | Soybean plant response rating (soybean; [1]): 0 | Soybean plant response rating (soybean; [2]): 0 | Plant response rating, Soybean (soybean; [3]): 4 | Soybean plant response rating (soybean; [4]): 3 | Soybean plant response rating (soybean; [5]): 4 | Soybean plant response rating (soybean; [6]): 0 | Plant response rating, Soybean (soybean; [7]): 6 | Soybean plant response rating (soybean; [8]): 8 | Rice plant response rating (rice; [9]): 0 | Rice plant response rating (rice; [10]): 0 | Rice plant response rating (rice; [11]): 0 | Rice plant response rating (rice; [12]): 2 | S. Flatsedge plant response rating (smallflower flatsedge; [9]): 0 | S. Flatsedge plant response rating (smallflower flatsedge; [10]): 0 | S. Flatsedge plant response rating (smallflower flatsedge; [11]): 0 | S. Flatsedge plant response rating (smallflower flatsedge; [12]): 5 | Bedstraw plant response rating (bedstraw; [2]): 0 | Plant response rating, Bedstraw (bedstraw; [3]): 2 | Bedstraw plant response rating (bedstraw; [4]): 5 | Bedstraw plant response rating (bedstraw; [5]): 6 | Bedstraw plant response rating (bedstraw; [6]): 0 | Plant response rating, Bedstraw (bedstraw; [7]): 8 | Bedstraw plant response rating (bedstraw; [8]): 8 | Cocklebur plant response rating (cocklebur; [1]): 0 | Cocklebur plant response rating (cocklebur; [2]): 0 | Plant response rating, Cocklebur (cocklebur; [3]): 0 | Cocklebur plant response rating (cocklebur; [4]): 0 | Cocklebur plant response rating (cocklebur; [5]): 0 | Cocklebur plant response rating (cocklebur; [6]): 0 | Plant response rating, Cocklebur (cocklebur; [7]): 1 | Cocklebur plant response rating (cocklebur; [8]): 2 | Redroot pigweed plant response rating (pigweed; [2]): 0 | Plant response rating, Redroot pigweed (pigweed; [3]): 5 | Redroot pigweed plant response rating (pigweed; [4]): 1 | Redroot pigweed plant response rating (pigweed; [5]): 2 | Redroot pigweed plant response rating (pigweed; [6]): 0 | Plant response rating, Redroot pigweed (pigweed; [7]): 4 | Redroot pigweed plant response rating (pigweed; [8]): 5 | Velvetleaf plant response rating (velvetleaf; [1]): 0 | Velvetleaf plant response rating (velvetleaf; [2]): 6 | Plant response rating, Velvetleaf (velvetleaf; [3]): 7 | Velvetleaf plant response rating (velvetleaf; [4]): 1 | Velvetleaf plant response rating (velvetleaf; [5]): 1 | Velvetleaf plant response rating (velvetleaf; [6]): 1 | Plant response rating, Velvetleaf (velvetleaf; [7]): 1 | Velvetleaf plant response rating (velvetleaf; [8]): 1

Source: patent publication US6737383B1, “Herbicidal oxadiazolidines” (priority 1999, dated 2004)
